# According to paper PMC4774911, “Biochemical Screening of Five Protein Kinases from Plasmodium falciparum against 14,000 Cell-Active Compounds” (PLoS ONE, 2016):
# Where two headings read alike, the source gives them in different places.
# How the values were obtained:
# [1] = target: T1, Plasmodium falciparum calcium-dependent protein kinase 1 (CDPK1) (Plasmodium falciparum, UniProt P62344); assay: CDPK1 Kinase-Glo ATP-consumption screen and dose-response; assay type: biochemical; settings: hits below 1 uM; read-out: CDPK1 IC50
# T1 construct: 6-Histidine (N); made in house
# Summary of the method: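 Single-point testing used 1 μM final compound, then dose-response, against CDPK4 and CDPK1 with Syntide-2 (40 μM) as substrate. After 90 min, reactions were halted by 5 mM EGTA, and kinase activity was inferred from depleted ATP via Kinase-Glo luminescence.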
# [2] = target: T2, Plasmodium falciparum protein kinase 6 (PK6) (Plasmodium falciparum, UniProt Q8IDW1); assay: biochemical
# T2 construct: 6-Histidine (N); made in house
# T2 sequence (Q8IDW1 1-305): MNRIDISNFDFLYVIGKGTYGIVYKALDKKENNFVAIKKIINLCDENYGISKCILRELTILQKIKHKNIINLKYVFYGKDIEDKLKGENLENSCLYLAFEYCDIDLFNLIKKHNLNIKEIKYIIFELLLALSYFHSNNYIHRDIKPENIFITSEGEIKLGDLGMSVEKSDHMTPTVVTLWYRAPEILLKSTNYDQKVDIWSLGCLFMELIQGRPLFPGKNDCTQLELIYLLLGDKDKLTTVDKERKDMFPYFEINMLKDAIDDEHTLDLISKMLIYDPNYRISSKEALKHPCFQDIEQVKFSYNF
# HepG2 cells = settings: Nature 2010, cited from earlier work
# P. falciparum 3D7 cells = settings: Nature 2010, cited from earlier work
# DD2 [3] = system: DD2; parameters: method as in F.J. Gamo et al., Nature 2010; settings: downloaded from ChEMBL, ref F.J. Gamo et al., Nature 2010; cited from earlier work
# 3D7 PFLDH [4] = system: 3D7 PFLDH; parameters: method as in F.J. Gamo et al., Nature 2010; concentration or dose not given beside the values; settings: downloaded from ChEMBL, ref F.J. Gamo et al., Nature 2010; cited from earlier work
# DD2 [5] = system: DD2; parameters: method as in F.J. Gamo et al., Nature 2010; settings: P. falciparum Dd2; downloaded from ChEMBL ref F.J. Gamo et al., Nature 2010; cited from earlier work
# 3D7 PFLDH [6] = system: 3D7 PFLDH; parameters: method as in F.J. Gamo et al., Nature 2010; settings: downloaded from ChEMBL ref F.J. Gamo et al., Nature 2010; cited from earlier work
# [7] = hits below 1 uM, read-out: PK6 IC50
# [8] = HepG2, downloaded from ChEMBL, ref F.J. Gamo et al.
# [9] = 3D7, downloaded from ChEMBL, ref F.J. Gamo et al.
# [10] = HepG2 cells, downloaded from ChEMBL ref F.J. Gamo et al.
# [11] = P. falciparum 3D7, downloaded from ChEMBL ref F.J. Gamo et al.
# T1 sequence (P62344 whole entry): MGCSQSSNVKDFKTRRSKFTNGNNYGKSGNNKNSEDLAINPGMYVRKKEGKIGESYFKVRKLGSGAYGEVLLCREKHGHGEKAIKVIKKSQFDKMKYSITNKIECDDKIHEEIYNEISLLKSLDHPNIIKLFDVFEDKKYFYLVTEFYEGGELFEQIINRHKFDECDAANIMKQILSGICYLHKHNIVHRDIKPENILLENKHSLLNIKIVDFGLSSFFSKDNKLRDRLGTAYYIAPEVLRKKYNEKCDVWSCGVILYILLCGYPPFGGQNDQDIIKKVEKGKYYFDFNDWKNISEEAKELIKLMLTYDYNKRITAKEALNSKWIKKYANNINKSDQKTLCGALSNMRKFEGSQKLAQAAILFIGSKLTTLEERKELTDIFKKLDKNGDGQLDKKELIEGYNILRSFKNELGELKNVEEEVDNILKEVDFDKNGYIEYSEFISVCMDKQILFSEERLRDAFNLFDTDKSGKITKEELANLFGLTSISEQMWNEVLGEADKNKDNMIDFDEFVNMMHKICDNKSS
SMILES,IC50 [1] [nM],"IC50 [2, 7] [nM]",PCT_INHIB_HEPG2 (HepG2 cells; [8]) [%],PCT_IHB_3D7 (P. falciparum 3D7 cells; [9]) [%],pXC50_3D7 (P. falciparum 3D7 cells; [9]),PCT_INHB_DD2 (DD2 [3]) [%],PCT_INHIB_3D7_PFLDH (3D7 PFLDH [4]) [%],PCT_INHIB_HEPG2 (HepG2 cells; [10]),PCT_IHB_3D7 (P. falciparum 3D7 cells; [11]),pXC50_3D7 (P. falciparum 3D7 cells; [11]),PCT_INHB_DD2 (DD2 [5]),PCT_INHIB_3D7_PFLDH (3D7 PFLDH [6]),IC50 [2] [nM]
CS(=O)(=O)Cc1ccc(Nc2nccc(N3CCCc4cc(NC(=O)Nc5cccc(C(F)(F)F)c5)ccc43)n2)cc1 [TCMDC-134309],145,385,46,100,6.829,99,0,–,–,–,–,–,–
CN(c1ccc(NC(=O)Nc2cc(C(F)(F)F)ccc2F)cc1)c1ccnc(NCCN2CCOCC2)n1.O=C(O)C(F)(F)F [TCMDC-141590],–,520,67,97,6.29,73,0,–,–,–,–,–,–
CS(=O)(=O)Cc1ccc(Nc2ncc(Cl)c(Nc3cccnc3C(N)=O)n2)cc1.Cl [TCMDC-134165],–,691,54,97,6.062,97,0,–,–,–,–,–,–
CC(=O)c1ccc(NC(=O)Nc2ccc(N(C)c3ccnc(Nc4cccc(CS(C)(=O)=O)c4)n3)cc2)cc1 [TCMDC-138736],–,138,86,100,6.9122,98,0,–,–,–,–,–,–
CN(c1ccc2c(c1)nc(NCc1ccc(F)cc1)n2C)c1ccnc(Nc2ccc(CS(C)(=O)=O)cc2)n1.Cl [TCMDC-138747],–,844,48,97,6.082,79,7,–,–,–,–,–,–
CC(=O)Nc1ccc(Nc2ncc([N+](=O)[O-])c(Nc3ccccc3C(N)=O)n2)cc1.Cl [TCMDC-138731],–,128,42,98,6.437,97,2,–,–,–,–,–,–
COc1ccc(Nc2ncc(OC)c(Nc3ccccc3C(N)=O)n2)cc1N1CCN(C)CC1.O=CO [TCMDC-134149],967,270,63,100,6.131,96,0,–,–,–,–,–,–
COc1ccc(Nc2ncc(Cl)c(Nc3cccnc3C(N)=O)n2)cc1N1CCN(C)CC1.Cl [TCMDC-134163],559,86,77,95,6.6478,97,6,–,–,–,–,–,–
O=C(O)C(F)(F)F.O=c1[nH]ccc2nc(N[C@@H]3CCCNC3)nc(Nc3ccc(S(=O)(=O)N4CCOCC4)cc3)c12 [TCMDC-135038],146,115,13,96,6.13,99,0,–,–,–,–,–,–
CN(c1ccc(NC(=O)Nc2cccc(Cl)c2)cc1)c1ccnc(N)n1.Cl [TCMDC-138782],–,402,75,100,6.202,40,0,–,–,–,–,–,–
CS(=O)(=O)Cc1cccc(Nc2ncc(Cl)c(Nc3cccnc3C(N)=O)n2)c1.Cl [TCMDC-134166],–,74,56,96,6.775,97,0,–,–,–,–,–,–
Cc1cccc2[nH]c(-c3cc(-c4cn[nH]c4)cnc3N)nc12 [TCMDC-133561],296,–,–,–,–,–,–,37,100,6.6562,93,0,–
CCNC(=O)Nc1ccc(N(C)c2ccnc(Nc3ccc(CS(C)(=O)=O)cc3)n2)cc1.Cl [TCMDC-138759],–,269,0,100,7.051,99,2,–,–,–,–,–,–
Nc1ncc(-c2cn[nH]c2)cc1-c1nc2ccc(F)cc2[nH]1 [TCMDC-133559],150,–,–,–,–,–,–,38,100,6.137,53,0,–
CC(C)(CNC(=O)[C@H]1CCCN1)c1nc(-c2ccc(Cl)c(O)c2)c(-c2ccncc2)[nH]1.Cl [TCMDC-141060],179,–,–,–,–,–,–,0,86,5.895,95,0,–
COc1cc(-c2nc(C(C)(C)CN)[nH]c2-c2ccncc2)ccc1Br.Cl [TCMDC-140674],159,–,–,–,–,–,–,17,97,6.114,95,1,–
CCN(CC)CCCNc1nccc(N(C)c2ccc(NC(=O)Nc3cc(C(F)(F)F)ccc3F)cc2)n1.O=C(O)C(F)(F)F [TCMDC-141634],–,705,96,94,5.978,19,0,–,–,–,–,–,–
CC(C)(NCc1ncc[nH]1)c1nc(-c2ccc(Cl)c(O)c2)c(-c2ccncc2)[nH]1.Cl [TCMDC-140686],144,–,–,–,–,–,–,42,95,–,97,3,–
CC(C)(CN)c1nc(-c2ccc(Cl)c(O)c2)c(-c2ccnc(N)n2)[nH]1 [TCMDC-141019],7.49,–,–,–,–,–,–,34,95,6.0083,95,0,–
CCN(CC)CCNc1nccc(N(C)c2ccc(NC(=O)Nc3cc(C(F)(F)F)ccc3F)cc2)n1.O=C(O)C(F)(F)F [TCMDC-141632],–,–,74,97,6.26,25,1,–,–,–,–,–,917
CC(C)(CNCc1ccc(F)c(F)c1)c1nc(-c2ccc(Cl)c(O)c2)c(-c2ccncc2)[nH]1.Cl [TCMDC-140672],451,–,–,–,–,–,–,74,100,6.181,89,2,–
CN(c1ccc(NC(=O)Nc2cc(C(C)(C)C)on2)cc1)c1ccnc(NCCN2CCOCC2)n1.O=C(O)C(F)(F)F [TCMDC-141706],–,375,51,95,5.949,18,0,–,–,–,–,–,–
CC(C)(CNC(=O)C1CCN(Cc2ccoc2)CC1)c1nc(-c2ccc(Cl)c(O)c2)c(-c2ccncc2)[nH]1.Cl [TCMDC-140954],425,–,–,–,–,–,–,0,93,6.062,66,0,–
CNCC(C)(C)c1nc(-c2ccc(Cl)c(O)c2)c(-c2ccncc2)[nH]1.Cl [TCMDC-140762],49,–,–,–,–,–,–,46,98,6.133,96,0,–
